Columns and labels:
SK-MEL-2 [1] = test: Antiproliferative activity against human SK-MEL-2 cells assessed as inhibition of cell growth at 10 uM measured after 48 hrs by SRB assay relative to control; type: functional
SK-MEL-2 [2] = test: Antiproliferative activity against human SK-MEL-2 cells assessed as inhibition of cell growth measured after 48 hrs by SRB assay; type: functional
MOLT-4 = test: Antiproliferative activity against human MOLT-4 cells assessed as inhibition of cell growth measured after 48 hrs by SRB assay; type: functional
786-0 = test: Antiproliferative activity against human 786-0 cells assessed as inhibition of cell growth at 10 uM measured after 48 hrs by SRB assay relative to control; type: functional
UACC-257 [3] = test: Antiproliferative activity against human UACC-257 cells assessed as inhibition of cell growth measured after 48 hrs by SRB assay; type: functional
NCI-H460 = test: Antiproliferative activity against human NCI-H460 cells assessed as inhibition of cell growth measured after 48 hrs by SRB assay; type: functional
WI-38 [4] = test: Cell cycle arrest in human WI-38 cells assessed as accumulation in G2/M phase phase at IC50 concentration incubated for 48 hrs by propidium iodide staining based flow cytometry analysis (reference value: 7.16 %); details: wi-38, 48 h
Hs-578T = test: Antiproliferative activity against human Hs-578T cells assessed as inhibition of cell growth measured after 48 hrs by SRB assay; type: functional
HCT-116 [5] = test: Induction of apoptosis in human HCT116 cells assessed as increase in Bax gene expression by RT-PCR analysis relative to untreated control; type: functional
SN12C [6] = test: Antiproliferative activity against human SN12C cells assessed as inhibition of cell growth measured after 48 hrs by SRB assay; type: functional
WI-38 [7] = test: Cytotoxicity against human WI-38 cells assessed as reduction in cell viability after 48 hrs by MTT assay; type: cell-based; details: WI-38, 48 h
SF-268 = test: Antiproliferative activity against human SF-268 cells assessed as inhibition of cell growth at 10 uM measured after 48 hrs by SRB assay relative to control; type: functional
HCT-116 [8] = test: Cell cycle arrest in human HCT-116 cells assessed as accumulation in G0/G1 phase at IC50 concentration incubated for 48 hrs by propidium iodide staining based flow cytometry analysis (reference value: 42.5 %); type: functional
NCI-H522 = test: Antiproliferative activity against human NCI-H522 cells assessed as inhibition of cell growth measured after 48 hrs by SRB assay; type: functional
UACC-257 [9] = test: Antiproliferative activity against human UACC-257 cells assessed as inhibition of cell growth at 10 uM measured after 48 hrs by SRB assay relative to control; type: functional
[10] = Selectivity index, ratio of IC50 for human WI-38 cells to IC50 for human HCT116 cells after 48 hrs by MTT assay; type: toxicity; details: WI-38 cells versus HCT116 cells, read-out: Ratio IC50
CAKI-1 = test: Antiproliferative activity against human CAKI-1 cells assessed as inhibition of cell growth measured after 48 hrs by SRB assay; type: functional
NCI-H322M = test: Antiproliferative activity against human NCI-H322M cells assessed as inhibition of cell growth measured after 48 hrs by SRB assay; type: functional
UACC-62 = test: Antiproliferative activity against human UACC-62 cells assessed as inhibition of cell growth at 10 uM measured after 48 hrs by SRB assay relative to control; type: functional
SR = test: Antiproliferative activity against human SR cells assessed as inhibition of cell growth measured after 48 hrs by SRB assay; type: functional
CCRF-CEM = test: Antiproliferative activity against human CCRF-CEM cells assessed as inhibition of cell growth measured after 48 hrs by SRB assay; type: functional
UO-31 = test: Antiproliferative activity against human UO-31 cells assessed as inhibition of cell growth measured after 48 hrs by SRB assay; type: functional
OVCAR-5 = test: Antiproliferative activity against human OVCAR-5 cells assessed as inhibition of cell growth measured after 48 hrs by SRB assay; type: functional
SF-539 = test: Antiproliferative activity against human SF-539 cells assessed as inhibition of cell growth measured after 48 hrs by SRB assay; type: functional
TK-10 = test: Antiproliferative activity against human TK-10 cells assessed as inhibition of cell growth measured after 48 hrs by SRB assay; type: functional
OVCAR-4 = test: Antiproliferative activity against human OVCAR-4 cells assessed as inhibition of cell growth measured after 48 hrs by SRB assay; type: functional
HCT-116 [11] = test: Induction of apoptosis in human HCT116 cells assessed as up regulation of caspase-8 expression by RT-PCR analysis relative to untreated control; type: functional
MDA-MB-231 = test: Antiproliferative activity against human MDA-MB-231 cells assessed as inhibition of cell growth measured after 48 hrs by SRB assay; type: functional
SN12C [12] = test: Antiproliferative activity against human SN12C cells assessed as inhibition of cell growth at 10 uM measured after 48 hrs by SRB assay relative to control; type: functional
HCT-116 [13] = test: Induction of apoptosis in human HCT-116 cells assessed as necrotic cells at IC50 incubated for 48 hrs by annexin-V FITC and propidium iodide staining based flow cytometry analysis (reference value: 0.51 %); type: functional
T47D = test: Antiproliferative activity against human T47D cells assessed as inhibition of cell growth at 10 uM measured after 48 hrs by SRB assay relative to control; type: functional
NCI/ADR-RES = test: Antiproliferative activity against human NCI/ADR-RES cells assessed as inhibition of cell growth measured after 48 hrs by SRB assay; type: functional
HOP-92 = test: Antiproliferative activity against human HOP-92 cells assessed as inhibition of cell growth measured after 48 hrs by SRB assay; type: functional
[14] = read-out: LC50 (the source's name)

COc1ccc(-n2c(=S)sc3c(Cl)nc(C)nc32)c(OC)c1
inhibition at 10 µM (SK-MEL-2 [1]): > 50%
GI50 (SK-MEL-2 [2]): 2.04 µM
TGI (SK-MEL-2 [2]): 3.98 µM
CC50 (SK-MEL-2 [2]; [14]): 7.76 µM
GI50 (MOLT-4): 2.14 µM
TGI (MOLT-4): 5.5 µM
CC50 (MOLT-4; [14]): > 100 µM
inhibition at 10 µM (786-0): > 50%
GI50 (UACC-257 [3]): 2.34 µM
TGI (UACC-257 [3]): 5.62 µM
CC50 (UACC-257 [3]; [14]): 18.2 µM
GI50 (NCI-H460): 3.09 µM
TGI (NCI-H460): 9.12 µM
CC50 (NCI-H460; [14]): 49 µM
Activity (WI-38 [4]): 12.27%
GI50 (Hs-578T): 2.63 µM
TGI (Hs-578T): 7.76 µM
CC50 (Hs-578T; [14]): > 100 µM
fold change (FC) (HCT-116 [5]): 9.9
GI50 (SN12C [6]): 2.82 µM
TGI (SN12C [6]): 9.12 µM
CC50 (SN12C [6]; [14]): 36.3 µM
IC50 (WI-38 [7]): 21.7 µM
inhibition at 10 µM (SF-268): > 50%
Activity (HCT-116 [8]): 22.42%
GI50 (NCI-H522): 1.82 µM
TGI (NCI-H522): 3.89 µM
CC50 (NCI-H522; [14]): 8.32 µM
inhibition at 10 µM (UACC-257 [9]): > 50%
selectivity ratio at 48 h [10]: 4
GI50 (CAKI-1): 6.17 µM
TGI (CAKI-1): 19.5 µM
CC50 (CAKI-1; [14]): 45.7 µM
GI50 (NCI-H322M): 2.51 µM
TGI (NCI-H322M): 6.46 µM
CC50 (NCI-H322M; [14]): 22.4 µM
inhibition at 10 µM (UACC-62): > 50%
GI50 (SR): 1.41 µM
TGI (SR): 5.5 µM
CC50 (SR; [14]): > 100 µM
GI50 (CCRF-CEM): 2.69 µM
TGI (CCRF-CEM): 7.41 µM
CC50 (CCRF-CEM; [14]): > 100 µM
GI50 (UO-31): 3.63 µM
TGI (UO-31): 15.5 µM
CC50 (UO-31; [14]): 39.8 µM
GI50 (OVCAR-5): 6.17 µM
TGI (OVCAR-5): 20.9 µM
CC50 (OVCAR-5; [14]): 53.7 µM
GI50 (SF-539): 2.09 µM
TGI (SF-539): 4.57 µM
CC50 (SF-539; [14]): 10 µM
GI50 (TK-10): 4.68 µM
TGI (TK-10): 18.6 µM
CC50 (TK-10; [14]): 58.9 µM
GI50 (OVCAR-4): 4.68 µM
TGI (OVCAR-4): 15.5 µM
CC50 (OVCAR-4; [14]): 41.7 µM
fold change (FC) (HCT-116 [11]): 7.9
GI50 (MDA-MB-231): 3.16 µM
TGI (MDA-MB-231): 10.2 µM
CC50 (MDA-MB-231; [14]): 34.7 µM
inhibition at 10 µM (SN12C [12]): > 50%
Activity (HCT-116 [13]): 3.31%
inhibition at 10 µM (T47D): > 50%
GI50 (NCI/ADR-RES): 13.2 µM
TGI (NCI/ADR-RES): 72.4 µM
CC50 (NCI/ADR-RES; [14]): > 100 µM
GI50 (HOP-92): 2.04 µM
TGI (HOP-92): 8.51 µM
CC50 (HOP-92; [14]): 31.6 µM

From ChEMBL document CHEMBL4725331, “An investigative study of antitumor properties of a novel thiazolo[4,5-d]pyrimidine small molecule revealing superior antitumor activity with CDK1 selectivity and potent pro-apoptotic properties” (Bioorg Med Chem, 2020)
